Measured values published in US20230139445A1, “BACTERIAL CELLS WITH IMPROVED TOLERANCE TO DIACIDS” (priority 2016, published 2023).
Read-outs that look alike come from different tables or passages of the source.

Legend:
[1] = system: Escherichia coli K-12 MG1655; test: Growth of K-12 MG1655 in varying concentrations of fumaric, itaconic, malic and succinic acid, Growth Profiler; format: cell-based
Description: Five colonies from wild-type K-12 MG1655 and 10 individual colonies deriving from each population were inoculated into 300 μL M9+1% glucose in 96 well deepwell plates and incubated in a 300 rpm plate shaker at 37° C. The next day, cells were diluted 10× in M9+1% glucose and 30 μL was transferred into clear-bottomed 96 well half-deepwell plates (with rectangular wells) containing M9+1% glucose and M9+1% glucose+52.78 g/L glutaric acid or 55.56 g/L adipic acid, such that the final concentration of glutaric acid or adipic acid was 47.5 g/L or 50 g/L, respectively. In addition, cryogenic glycerol stocks of the overnight culture were saved in a 96 well plate format. Half deepwell plates were incubated at 37° C. with 225 rpm shaking in a Growth Profiler (Enzyscreen), with optical scans of the plates taken at 15 minute intervals. Green pixel values integrated over a 1 mm diameter circular area in each well were converted to OD600 values using a previously determined calibration between OD600 and green pixel values.
Additionally, each evolved isolate was tested for cross-tolerance toward other dicarboxylic acids of interest. […] All diacids tested were either the neutral sodium salts, or the free diacid was neutralized with sodium hydroxide to pH 7.0 for testing.

[2] = system: Escherichia coli K-12 MG1655 and evolved isolates; format: cell-based; conditions: 45 g/L itaconic acid
In short: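 Wild-type MG1655 and evolved isolates, precultured overnight in M9 + 1% glucose at 37 °C, were diluted into M9 + 1% glucose. Growth at 37 °C, 225 rpm, scanned every 15 min; pixel values calibrated to OD600. Diacids tested as sodium salts or neutralized to pH 7.0.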

C=C(CC(=O)O)C(=O)O [itaconic acid]
μ (mean) ([1]; growth rate of K-12 MG1655, 10 g/L diacid (sodium salt)): 0.703 h^1 | μ (mean) ([1]; growth rate of K-12 MG1655, 20 g/L diacid (sodium salt)): 0.603 h^1 | μ (mean) ([1]; growth rate of K-12 MG1655, 30 g/L diacid (sodium salt)): 0.520 h^1 | μ (mean) ([1]; growth rate of K-12 MG1655, 40 g/L diacid (sodium salt)): 0.320 h^1 | μ (mean) ([1]; growth rate of K-12 MG1655, 50 g/L diacid (sodium salt)): 0.117 h^1 | tlag (mean) ([1]; lag time of K-12 MG1655, 10 g/L diacid (sodium salt)): 5.8 h | tlag (mean) ([1]; lag time of K-12 MG1655, 20 g/L diacid (sodium salt)): 7.0 h | tlag (mean) ([1]; lag time of K-12 MG1655, 30 g/L diacid (sodium salt)): 9.4 h | tlag (mean) ([1]; lag time of K-12 MG1655, 40 g/L diacid (sodium salt)): 14.1 h | tlag (mean) ([1]; lag time of K-12 MG1655, 50 g/L diacid (sodium salt)): 29.9 h | growth rate μ (mean) ([2]; strain ADIP1-1): 0.466 h⁻¹ | lag time tlag (mean) ([2]; strain ADIP1-1): 8.3 h | growth rate μ (mean) ([2]; strain ADIP1-9): 0.434 h⁻¹ | lag time tlag (mean) ([2]; strain ADIP1-9): 8.7 h | growth rate μ (mean) ([2]; strain ADIP2-5): 0.440 h⁻¹ | lag time tlag (mean) ([2]; strain ADIP2-5): 8.3 h | growth rate μ (mean) ([2]; strain ADIP2-6): 0.470 h⁻¹ | lag time tlag (mean) ([2]; strain ADIP2-6): 8.2 h | growth rate μ (mean) ([2]; strain ADIP2-10): 0.438 h⁻¹ | lag time tlag (mean) ([2]; strain ADIP2-10): 8.3 h | growth rate μ (mean) ([2]; strain ADIP3-2): 0.459 h⁻¹ | lag time tlag (mean) ([2]; strain ADIP3-2): 7.9 h | growth rate μ (mean) ([2]; strain ADIP3-4): 0.451 h⁻¹ | lag time tlag (mean) ([2]; strain ADIP3-4): 8.4 h | growth rate μ (mean) ([2]; strain ADIP3-8): 0.433 h⁻¹ | lag time tlag (mean) ([2]; strain ADIP3-8): 8.5 h | growth rate μ (mean) ([2]; strain ADIP4-1): 0.339 h⁻¹ | lag time tlag (mean) ([2]; strain ADIP4-1): 11.2 h | growth rate μ (mean) ([2]; strain ADIP4-8): 0.326 h⁻¹ | lag time tlag (mean) ([2]; strain ADIP4-8): 10.4 h | growth rate μ (mean) ([2]; strain ADIP5-2): 0.354 h⁻¹ | lag time tlag (mean) ([2]; strain ADIP5-2): 9.4 h | growth rate μ (mean) ([2]; strain ADIP5-6): 0.527 h⁻¹ | lag time tlag (mean) ([2]; strain ADIP5-6): 7.2 h | growth rate μ (mean) ([2]; strain ADIP6-3): 0.327 h⁻¹ | lag time tlag (mean) ([2]; strain ADIP6-3): 9.9 h | growth rate μ (mean) ([2]; strain ADIP6-9): 0.337 h⁻¹ | lag time tlag (mean) ([2]; strain ADIP6-9): 10.3 h | growth rate μ (mean) ([2]; strain ADIP6-10): 0.343 h⁻¹ | lag time tlag (mean) ([2]; strain ADIP6-10): 9.1 h | growth rate μ (mean) ([2]; strain ADIP7-2): 0.342 h⁻¹ | lag time tlag (mean) ([2]; strain ADIP7-2): 7.9 h | growth rate μ (mean) ([2]; strain ADIP7-5): 0.402 h⁻¹ | lag time tlag (mean) ([2]; strain ADIP7-5): 8.6 h | growth rate μ (mean) ([2]; strain ADIP8-3): 0.308 h⁻¹ | lag time tlag (mean) ([2]; strain ADIP8-3): 11.7 h | growth rate μ (mean) ([2]; strain ADIP8-7): 0.235 h⁻¹ | lag time tlag (mean) ([2]; strain ADIP8-7): 12.5 h | growth rate μ (mean) ([2]; strain ADIP8-10): 0.290 h⁻¹ | lag time tlag (mean) ([2]; strain ADIP8-10): 11.3 h | growth rate μ (mean) ([2]; strain GLUT1-3): 0.454 h⁻¹ | lag time tlag (mean) ([2]; strain GLUT1-3): 10.2 h | growth rate μ (mean) ([2]; strain GLUT1-9): 0.446 h⁻¹ | lag time tlag (mean) ([2]; strain GLUT1-9): 10.4 h | growth rate μ (mean) ([2]; strain GLUT1-10): 0.446 h⁻¹ | lag time tlag (mean) ([2]; strain GLUT1-10): 18.1 h | growth rate μ (mean) ([2]; strain GLUT2-1): 0.385 h⁻¹ | lag time tlag (mean) ([2]; strain GLUT2-1): 10.8 h | growth rate μ (mean) ([2]; strain GLUT2-9): 0.415 h⁻¹ | lag time tlag (mean) ([2]; strain GLUT2-9): 9.0 h | growth rate μ (mean) ([2]; strain GLUT2-10): 0.494 h⁻¹ | lag time tlag (mean) ([2]; strain GLUT2-10): 8.8 h | growth rate μ (mean) ([2]; strain GLUT3-5): 0.310 h⁻¹ | lag time tlag (mean) ([2]; strain GLUT3-5): 12.0 h | growth rate μ (mean) ([2]; strain GLUT3-7): 0.326 h⁻¹ | lag time tlag (mean) ([2]; strain GLUT3-7): 11.7 h | growth rate μ (mean) ([2]; strain GLUT3-9): 0.257 h⁻¹ | lag time tlag (mean) ([2]; strain GLUT3-9): 14.5 h | growth rate μ (mean) ([2]; strain GLUT4-1): 0.414 h⁻¹ | lag time tlag (mean) ([2]; strain GLUT4-1): 11.7 h | growth rate μ (mean) ([2]; strain GLUT4-4): 0.339 h⁻¹ | lag time tlag (mean) ([2]; strain GLUT4-4): 13.4 h | growth rate μ (mean) ([2]; strain GLUT4-10): 0.328 h⁻¹ | lag time tlag (mean) ([2]; strain GLUT4-10): 13.5 h | growth rate μ (mean) ([2]; strain GLUT5-4): 0.398 h⁻¹ | lag time tlag (mean) ([2]; strain GLUT5-4): 15.2 h | growth rate μ (mean) ([2]; strain GLUT5-5): 0.368 h⁻¹ | lag time tlag (mean) ([2]; strain GLUT5-5): 11.4 h | growth rate μ (mean) ([2]; strain GLUT5-9): 0.438 h⁻¹ | lag time tlag (mean) ([2]; strain GLUT5-9): 22.5 h | growth rate μ (mean) ([2]; strain GLUT6-4): 0.360 h⁻¹ | lag time tlag (mean) ([2]; strain GLUT6-4): 11.3 h | growth rate μ (mean) ([2]; strain GLUT6-5): 0.420 h⁻¹ | lag time tlag (mean) ([2]; strain GLUT6-5): 10.6 h | growth rate μ (mean) ([2]; strain GLUT6-10): 0.502 h⁻¹ | lag time tlag (mean) ([2]; strain GLUT6-10): 10.5 h | growth rate μ (mean) ([2]; strain GLUT7-2): 0.441 h⁻¹ | lag time tlag (mean) ([2]; strain GLUT7-2): 10.6 h | growth rate μ (mean) ([2]; strain GLUT7-6): 0.293 h⁻¹ | lag time tlag (mean) ([2]; strain GLUT7-6): 13.7 h | growth rate μ (mean) ([2]; strain GLUT7-7): 0.239 h⁻¹ | lag time tlag (mean) ([2]; strain GLUT7-7): 8.5 h | growth rate μ (mean) ([2]; strain GLUT8-5): 0.372 h⁻¹ | lag time tlag (mean) ([2]; strain GLUT8-5): 17.3 h | growth rate μ (mean) ([2]; strain GLUT8-6): 0.236 h⁻¹ | lag time tlag (mean) ([2]; strain GLUT8-6): 10.3 h | growth rate μ (mean) ([2]; strain GLUT8-9): 0.224 h⁻¹ | lag time tlag (mean) ([2]; strain GLUT8-9): 12.0 h | growth rate μ (mean) ([2]; strain MG1655 (Table 26)): 0.248 h⁻¹ | lag time tlag (mean) ([2]; strain MG1655 (Table 26)): 13.4 h | growth rate μ (mean) ([2]; strain MG1655 (Table 27)): 0.257 h⁻¹ | lag time tlag (mean) ([2]; strain MG1655 (Table 27)): 13.0 h
